Entries after “also recorded” stand apart in the source; their conditions may differ.
Key:
[1] = biological target: T1, N-SMase (Rattus norvegicus, UniProt O35049); conditions: rat brain; non-competitive inhibitor; cited from earlier work
T1 construct: host or cells: rat brain
T1 sequence (O35049 1-655): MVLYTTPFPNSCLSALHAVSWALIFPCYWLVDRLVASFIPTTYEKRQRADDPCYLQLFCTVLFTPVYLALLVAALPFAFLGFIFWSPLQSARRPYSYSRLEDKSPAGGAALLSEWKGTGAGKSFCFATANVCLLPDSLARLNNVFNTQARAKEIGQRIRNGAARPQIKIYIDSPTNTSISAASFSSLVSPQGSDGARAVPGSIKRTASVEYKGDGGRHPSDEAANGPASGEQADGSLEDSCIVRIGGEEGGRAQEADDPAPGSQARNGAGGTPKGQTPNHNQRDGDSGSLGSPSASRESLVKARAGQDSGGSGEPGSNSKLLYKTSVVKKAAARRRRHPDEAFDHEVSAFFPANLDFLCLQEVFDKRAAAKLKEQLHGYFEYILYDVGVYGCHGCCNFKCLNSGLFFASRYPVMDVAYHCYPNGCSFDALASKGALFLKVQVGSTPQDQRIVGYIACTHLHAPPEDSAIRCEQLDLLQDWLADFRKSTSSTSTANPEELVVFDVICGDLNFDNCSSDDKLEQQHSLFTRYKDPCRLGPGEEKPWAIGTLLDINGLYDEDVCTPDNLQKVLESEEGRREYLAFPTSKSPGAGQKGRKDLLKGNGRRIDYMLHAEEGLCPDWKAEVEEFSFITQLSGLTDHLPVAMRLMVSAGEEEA

[2] = system: exosome secretion and RNA loading onto exosomes; conditions: cited from earlier work
[3] = system: SMPD3
From the text: (§1) (A) A scheme of the exosome transfer from cultured primary mouse hepatocytes to primary mouse bone marrow-derived macrophages (BMDMs). […] The same number of exosomes was used.
(§2) SMPD3 plays a critical role in EV secretion and affects components of EV such as RNA.

[4] = system: primary mouse bone marrow-derived macrophages (BMDMs); assay: Exosome transfer from treated primary mouse hepatocytes to bone marrow-derived macrophages, inflammatory response (IL-6 mRNA); conditions: PA 100 μM for 20 hours; exosome fraction by MagCapture kit
From the text: as §1, §2

SMILES | IC50 [1] [nM] | Effect on RNA loading onto exosomes [2] | Effect on exosome secretion [2] | Expression of SMPD3 in cultured hepatocytes on palmitate exposure [3] | Inflammatory effect (IL-6 mRNA expression) in BMDMs of exosomes from hepatocytes treated with palmitate [4]
Cl.Cl.O=C(/C=C/c1ccc(/C=C/C(=O)Nc2ccc(C3=NCCN3)cc2)cc1)Nc1ccc(C2=NCCN2)cc1 [GW4869] | 1000 | inhibit | inhibit | – | –
CCCCCCCCCCCCCCCC(=O)O [palmitate] | – | – | – | induced | increase expression of IL-6 mRNA in BMDMs; also recorded: caused higher inflammatory responses in primary murine macrophages
